EC50, Emax and IC50 data for six compounds are collected here from patent US7205317B2, “4[piperidin-4-yliden-(3-carbamoylpheny)methyl]benzamide derivatives and their use for the treatment of pain spinal injuries or gastrointestinal disorders” (AstraZeneca AB, priority 2001, dated 2007).

The target in assay [1] is T1, delta receptors, rat brain membranes (Rattus norvegicus, UniProt P33533).
T1 construct: from tissue; host or cells: rat brain homogenate
Put plainly: GTP[γ]35S binding functional assay, homogenised rat brain. The format is biochemical. The protocol:
(§1) • A. Human 293S cells expressing cloned human μ, δ, and κ receptors and neomycin resistance were grown in suspension at 37° C. and 5% CO2 in shaker flasks containing calcium-free DMEM 10% FBS, 5% BCS, 0.1% Pluronic F-68, and 600 μg/ml geneticin. • B. Mouse and rat brains were weighed and rinsed in ice-cold PBS (containing 2.5 mM EDTA, pH 7.4). The brains were homogenized with a polytron for 15 sec (mouse) or 30 sec (rat) in ice-cold lysis buffer (50 mM Tris, pH 7.0, 2.5 mM EDTA, with phenylmethylsulfonyl fluoride added just prior use to […] from a 0.5M stock in DMSO:ethanol). Membrane Preparation
(§2) The agonist activity of the compounds is measured by determining the degree to which the compounds receptor complex activates the binding of GTP to G-proteins to which the receptors are coupled. In the GTP binding assay, GTP[γ]^35S is combined with test compounds and membranes from HEK-293S cells expressing the cloned human opioid receptors or from homogenised rat and mouse brain. Agonists stimulate GTP[γ]^35S binding in these membranes. The EC50 and Emax values of compounds are determined from dose-response curves. Right shifts of the dose response curve by the delta antagonist naltrindole are performed to verify that agonist activity is mediated through delta receptors.

For assay [2], the target named is T2, delta receptors, mouse brain membranes (Mus musculus, UniProt P32300).
T2 construct: from tissue; host or cells: mouse brain homogenate
As to the kind of experiment: GTP[γ]35S binding functional assay, homogenised mouse brain. Format: biochemical. The protocol:
as §1, §2

The target of assay [3] is T3, cloned human δ receptor (HDELTA) (Homo sapiens, UniProt P41143).
T3 construct: expressed in transfected cells; host or cells: human 293S (HEK-293S) cells, geneticin-selected
Put plainly: Binding assay, displacement of radioligand on membranes of 293S cells expressing cloned human δ receptor. The note with it: 293S cell membranes.

The target of assay [4] is T3, cloned human δ receptor (HDELTA). As to the kind of experiment: GTP[γ]35S binding functional assay, membranes from HEK-293S cells expressing cloned human opioid receptors. The format is biochemical. The procedure:
as §1
Cells were pelleted and resuspended in lysis buffer (50 mM Tris, pH 7.0, 2.5 mM EDTA, with PMSF added just prior to use to 0.1 mM from a 0.1 M stock in ethanol), incubated on ice for 15 min, then homogenized with a polytron for 30 sec. The suspension was spun at 1000 g (max) for 10 min at 4° C. The supernatant was saved on ice and the pellets resuspended and spun as before. The supernatants from both spins were combined and spun at 46,000 g (max) for 30 min. The pellets were resuspended in cold Tris buffer (50 mM Tris/Cl, pH 7.0) and spun again. The final pellets were resuspended in membrane buffer (50 mM Tris, 0.32 M sucrose, pH 7.0). Aliquots (1 ml) in polypropylene tubes were frozen in dry ice/ethanol and stored at −70° C. until use. The protein concentrations were determined by a modified Lowry assay with sodium dodecyl sulfate.
as §2

As a reminder, the EC50 is the concentration that produces a half-maximal response. Read a high EC50 as a need for much substance. By Emax is commonly meant the size of the effect at its maximum, as opposed to the concentration needed. As a reminder, the IC50 is the point on the concentration scale where inhibition reaches its midpoint.

The structures appear in SMILES notation.

T3 sequence (P41143 whole entry): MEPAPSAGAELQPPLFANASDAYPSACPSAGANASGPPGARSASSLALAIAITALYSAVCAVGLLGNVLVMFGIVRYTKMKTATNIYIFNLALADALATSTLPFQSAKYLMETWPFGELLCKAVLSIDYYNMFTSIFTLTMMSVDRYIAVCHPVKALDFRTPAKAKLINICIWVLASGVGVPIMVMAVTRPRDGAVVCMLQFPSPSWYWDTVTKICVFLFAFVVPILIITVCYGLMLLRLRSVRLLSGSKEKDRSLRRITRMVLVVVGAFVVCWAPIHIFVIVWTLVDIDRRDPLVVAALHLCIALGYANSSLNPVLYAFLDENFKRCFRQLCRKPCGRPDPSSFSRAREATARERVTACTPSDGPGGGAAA
T1 sequence (P33533 whole entry): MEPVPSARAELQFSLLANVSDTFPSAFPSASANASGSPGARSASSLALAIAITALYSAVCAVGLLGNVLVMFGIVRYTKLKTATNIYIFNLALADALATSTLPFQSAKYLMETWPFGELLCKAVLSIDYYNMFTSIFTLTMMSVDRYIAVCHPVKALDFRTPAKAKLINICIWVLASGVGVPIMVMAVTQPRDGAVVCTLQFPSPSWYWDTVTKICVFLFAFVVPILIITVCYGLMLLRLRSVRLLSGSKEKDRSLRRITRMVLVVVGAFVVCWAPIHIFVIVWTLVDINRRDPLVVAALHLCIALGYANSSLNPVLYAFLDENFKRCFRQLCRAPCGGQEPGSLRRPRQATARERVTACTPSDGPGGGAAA
T2 sequence (P32300 whole entry): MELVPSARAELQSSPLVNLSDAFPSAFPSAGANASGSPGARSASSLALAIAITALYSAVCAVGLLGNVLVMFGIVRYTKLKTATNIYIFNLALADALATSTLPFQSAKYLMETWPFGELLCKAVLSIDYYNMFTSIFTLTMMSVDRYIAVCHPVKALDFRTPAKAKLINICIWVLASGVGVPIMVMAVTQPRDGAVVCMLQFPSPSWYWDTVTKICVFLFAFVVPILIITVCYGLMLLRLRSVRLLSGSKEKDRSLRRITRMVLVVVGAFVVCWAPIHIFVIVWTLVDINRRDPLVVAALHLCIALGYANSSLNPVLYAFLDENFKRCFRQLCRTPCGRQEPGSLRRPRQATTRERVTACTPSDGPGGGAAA

In the case of `CCN(CC)C(=O)c1ccc(C(=C2CCN(Cc3ccccc3)CC2)c2cccc(C(N)=O)c2)cc1` [3b, N,N-Diethyl-4-[1-benzylpiperidin-4-ylidene(3-carbamoylphenyl)-methyl]-benzamide], the concentration for a half-maximal effect (EC50) in assay [1] worked out at 0.403 nM; in assay [2], 0.539 nM; in assay [4] it was 0.091 nM. Further, the maximum response (Emax) in assay [1] turned out to be 179%; in assay [2], 165%; in assay [4], 93.8%. In assay [3], this compound came in with an IC50 of 0.548 nM.
In the case of `CCN(CC)C(=O)c1ccc(C(=C2CCN(Cc3cccs3)CC2)c2cccc(C(N)=O)c2)cc1` [5a], the figures for the EC50 in assay [1], in assay [2] and in assay [4] were 0.613 nM, 0.818 nM and 0.158 nM, respectively. In addition, the maximum response (Emax) in assay [1] was found to be 181%; in assay [2], 170%; in assay [4], 98.1%. Moreover, the concentration for half-maximal inhibition (IC50) in assay [3] stood at 0.373 nM.
As for `CCN(CC)C(=O)c1ccc(C(=C2CCN(Cc3ccco3)CC2)c2cccc(C(N)=O)c2)cc1` [5b], in assay [1], it took 0.633 nM to reach a half-maximal effect (EC50) and the maximal effect (Emax) came out at 149%. This compound also showed a 50% inhibitory concentration (IC50) in assay [3] of 0.282 nM.
In the same order, the values of `CCN(CC)C(=O)c1ccc(C(=C2CCN(Cc3ccoc3)CC2)c2cccc(C(N)=O)c2)cc1` [5c] are 0.367 nM, 170% and 0.246 nM.
The matching figures for `CCN(CC)C(=O)c1ccc(C(=C2CCN(Cc3ccccn3)CC2)c2cccc(C(N)=O)c2)cc1` [5d, N,N-Diethyl-4-[1-(2-pyridine)methyl-piperidin-4-ylidene-(3-carbamoylphenyl)-methyl]-benzamide]: 0.396 nM, 180% and 0.278 nM.
For the compound `CCN(CC)C(=O)c1ccc(C(=C2CCN(Cc3ccsc3)CC2)c2cccc(C(N)=O)c2)cc1` [5e, N,N-Diethyl-4-[1-(3-thiophene)methyl-piperidin-4-ylidene-(3-carbamoylphenyl)-methyl]-benzamide], the IC50 in assay [3] was 0.235 nM. This lies in the sub-nanomolar range.
